Where two headings read alike, the source gives them in different places.
Columns and labels:
[1] = tested on: acetylcholine levels in ventral hippocampus; details: donepezil 1 mg/kg ip and vehicle; compared to vehicle+vehicle
Excerpt: Adult, male, Wistar rats were used for the experiments. The rats were anesthetized before surgery. Each animal was placed in a stereotaxic frame (Kopf Instruments, USA) and an incision was made on the top of the skull. A microdialysis probe with a 4 mm^2 exposed surface (polyacrylnitril membrane, Brainlink, the Netherlands) was implanted into the ventral hippocampus. […] The probes were attached to the skull with stainless steel screws and dental cement. Experiments started after one day of recovery.
Vortioxetine HBr was prepared in 10% 2-hydroxypropyl-β-cyclodextrin at 0, 5 or 10 mg/ml.
After two hours of prestabilisation, samples (30 μl) were collected and stored in 20 mM formic acid and 0.04% ascorbic acid (10 μl).
The concentration of acetylcholine in the samples was determined by HLPC fitted with tandem mass spectroscopy (MS/MS) for detection using acetyl-β-methyl-choline as internal standard. Chromatographic separation was performed on a reversed phase Phenomenex Synergi Max-RP column (2.0×150 mm, particle size 4 μm) at 50° C. Components were separated using an isocratic flow of eluent A (20 mM ammonium acetate, 5% acetonitril and 0.3% trifluoroacetic acid) at a flow rate of 0.25 ml/min. […]
The average of three pre-administration samples was set to 100%. […] All post-administration samples were expressed as a percentage of basal level within the same subject. […]

[2] = type: in vivo; details: rat
Excerpt: In addition, blood samples were taken from each animal to measure the plasma level of the active ingredients.

[3] = tested on: acetylcholine levels in hippocampus; assay: Microdialysis: acetylcholine levels in ventral hippocampus of freely moving Sprague Dawley rats (Examples 3 and 4); type: in vivo, rat
Excerpt: Adult, male Sprague Dawley rats were used in the experiments. The rats were anesthetized before surgery. The animals were placed in a stereotaxic frame (Kopf instruments, USA), and CMA12 guide cannulas (CMA Microdialysis, Sweden) were implanted aiming into the ventral hippocampus. Coordinates for the tips of the probes were AP=−5.3 mm to bregma, lateral (ML)=−4.8 mm to midline and ventral=−8.0 mm to dura (Paxinos and Watson).
Galanthamine, the chemical name of which is (4aS,6R,8aS)-4a,5,9,10,11,12-hexahydro-3-methoxy-11-methyl-6H-benzofuro[3a,3,2-ef][2]benzazepin-6-ol, was administered as the HBr salt. Vortioxetine was administered as the HBr salt. Vortioxetine and galantamine were prepared in 0.9% saline. Vortioxetine was administered subcutaneously at 10 mg/kg and galantamine was administered subcutaneously at 0.3 mg/kg and 1.0 mg/kg.
The day before the experiment, a microdialysis probe (CMA/12, 4 mm, PAES, MWKO 100 kDa) was inserted into the respective guide cannula in the awake rats. […] At the day of the experiment, samples were collected in 30 min intervals prior to administration to define the baseline. The data is presented as percentage of baseline within the same animal. Significance is defined as p<0.05. Animals received treatments according to experimental protocol and samples were collected at 30 minutes intervals.
The concentration of acetylcholine in the samples was determined using a Waters Acquity HPLC system equipped with a Sunshell RP-Aqua 2.1×100 mm, 2.6 um particle column fitted with a Waters Quattro Premier XE triple quadrupole mass spectrometer operating in the MS/MS mode. Components were separated using an isocratic flow of eluent A (100 mM ammonium acetate in milliQ water).
Injection of galantamine was 60 minutes prior to the injection of vortioxetine.

[4] = tested on: rats with scopolamine-induced memory impairment; assay: Novel object recognition task (NOR) in rats with scopolamine-induced memory impairment (Example 5); type: in vivo, rat
Procedure: In a habituation phase, rats are allowed to explore the test room environment and two objects which differ in shape, colour and texture. In the test phase, one of the objects is exchanged so that the rats are exposed to one novel object and one familiar object. The time spent exploring the novel and the familiar object is recorded following the administration of test compounds.
Sprague-Dawley rats were used
One day 1 and day 2 of the experiment the rats received two habituation sessions to the test room environment including two objects (familiar objects). Each session lasted 6 minutes. […] At the test day, five groups of rats received a third habituation test (familiarization trial) after which they were removed from the test apparatus and one of the objects was replaced with a novel object. Four hours later, the rats were put back in the test apparatus (test phase) and the time used exploring of the familiar and the novel object was recorded.
The numbers in parenthesis indicate the number of rats in each group

[5] = plasma; cited from earlier work
serotonin transporter [6] = target: T1, serotonin transporter (Rattus norvegicus, UniProt P31652); details: rats; vortioxetine dosed at 5-10 mg/kg; cited from earlier work
T1 construct: The receptor occupancy in rats following administration of vortioxetine has been investigated; host or cells: rat, in vivo / ex vivo occupancy
T1 sequence (P31652 whole entry): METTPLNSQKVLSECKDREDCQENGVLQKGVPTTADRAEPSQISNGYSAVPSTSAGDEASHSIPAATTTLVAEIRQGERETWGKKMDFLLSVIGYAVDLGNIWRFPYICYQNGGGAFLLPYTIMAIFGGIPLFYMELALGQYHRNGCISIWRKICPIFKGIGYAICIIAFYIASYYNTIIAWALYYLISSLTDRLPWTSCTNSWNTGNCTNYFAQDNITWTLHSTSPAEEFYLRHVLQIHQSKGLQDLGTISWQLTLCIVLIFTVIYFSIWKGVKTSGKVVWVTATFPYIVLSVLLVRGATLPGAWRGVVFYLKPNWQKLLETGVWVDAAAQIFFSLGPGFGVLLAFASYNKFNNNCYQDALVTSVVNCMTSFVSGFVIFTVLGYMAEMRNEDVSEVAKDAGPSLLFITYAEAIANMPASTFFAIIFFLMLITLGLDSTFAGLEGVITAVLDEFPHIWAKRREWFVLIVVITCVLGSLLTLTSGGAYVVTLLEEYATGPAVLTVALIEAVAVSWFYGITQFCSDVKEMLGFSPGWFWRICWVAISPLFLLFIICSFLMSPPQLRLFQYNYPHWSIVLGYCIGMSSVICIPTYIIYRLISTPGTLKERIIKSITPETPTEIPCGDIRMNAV

5-HT3-receptor = target: T2, 5-HT3-receptor (Rattus norvegicus, UniProt P35563); details: rats; vortioxetine dosed at 5-10 mg/kg; cited from earlier work
T2 construct: The receptor occupancy in rats following administration of vortioxetine has been investigated; host or cells: rat, in vivo / ex vivo occupancy
T2 sequence (P35563 24-483): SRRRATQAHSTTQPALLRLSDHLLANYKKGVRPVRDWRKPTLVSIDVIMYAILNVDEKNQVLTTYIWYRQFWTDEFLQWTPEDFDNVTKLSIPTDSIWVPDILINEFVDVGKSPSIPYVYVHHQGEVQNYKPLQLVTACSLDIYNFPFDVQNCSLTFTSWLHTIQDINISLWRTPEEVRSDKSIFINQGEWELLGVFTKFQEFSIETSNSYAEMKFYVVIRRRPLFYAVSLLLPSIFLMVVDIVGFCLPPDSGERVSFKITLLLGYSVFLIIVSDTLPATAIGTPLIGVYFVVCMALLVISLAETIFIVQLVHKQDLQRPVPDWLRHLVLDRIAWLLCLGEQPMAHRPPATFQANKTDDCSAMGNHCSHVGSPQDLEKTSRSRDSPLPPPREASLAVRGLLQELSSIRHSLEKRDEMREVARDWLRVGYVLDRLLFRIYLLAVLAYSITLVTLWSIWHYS

5-HT1B-receptor = target: T3, 5-HT1B-receptor (Rattus norvegicus, UniProt P28564); details: rats; vortioxetine dosed at 5-10 mg/kg; cited from earlier work
T3 construct: The receptor occupancy in rats following administration of vortioxetine has been investigated; host or cells: rat, in vivo / ex vivo occupancy
T3 sequence (P28564 whole entry): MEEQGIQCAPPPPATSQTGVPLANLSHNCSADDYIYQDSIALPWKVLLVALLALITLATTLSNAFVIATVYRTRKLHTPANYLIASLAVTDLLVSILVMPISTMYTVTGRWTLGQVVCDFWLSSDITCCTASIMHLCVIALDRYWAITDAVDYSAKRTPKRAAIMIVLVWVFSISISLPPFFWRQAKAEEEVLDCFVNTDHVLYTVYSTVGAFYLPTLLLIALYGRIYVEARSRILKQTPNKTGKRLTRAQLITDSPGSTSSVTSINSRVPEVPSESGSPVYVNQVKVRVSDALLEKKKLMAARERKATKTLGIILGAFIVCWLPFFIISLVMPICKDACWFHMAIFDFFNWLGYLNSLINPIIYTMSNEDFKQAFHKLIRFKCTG

serotonin transporter [7] = target: T4, serotonin transporter (Homo sapiens, UniProt P31645); details: humans, cited from earlier work
T4 construct: The serotonin transporter occupancy in humans was investigated; host or cells: human subjects, in vivo
T4 sequence (P31645 whole entry): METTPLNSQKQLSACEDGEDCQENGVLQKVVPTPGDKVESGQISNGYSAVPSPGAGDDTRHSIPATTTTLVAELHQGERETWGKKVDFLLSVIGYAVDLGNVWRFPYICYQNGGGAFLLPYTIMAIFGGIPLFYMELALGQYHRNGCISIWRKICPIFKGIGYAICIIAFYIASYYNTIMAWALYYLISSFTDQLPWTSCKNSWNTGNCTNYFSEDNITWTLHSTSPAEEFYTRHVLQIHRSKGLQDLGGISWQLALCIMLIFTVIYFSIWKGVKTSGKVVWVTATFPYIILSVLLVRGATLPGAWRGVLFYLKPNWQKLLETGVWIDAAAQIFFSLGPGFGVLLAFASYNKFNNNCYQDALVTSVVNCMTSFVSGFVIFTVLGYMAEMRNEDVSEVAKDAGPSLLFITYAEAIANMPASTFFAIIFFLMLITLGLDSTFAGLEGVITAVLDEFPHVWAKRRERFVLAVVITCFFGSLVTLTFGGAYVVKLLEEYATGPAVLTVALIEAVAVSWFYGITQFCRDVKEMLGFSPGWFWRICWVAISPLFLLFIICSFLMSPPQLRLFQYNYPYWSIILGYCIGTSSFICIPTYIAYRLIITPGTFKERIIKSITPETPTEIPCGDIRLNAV

[8] = tested on: patients suffering from MDD; details: long-term study; cited from earlier work
[9] = tested on: patients with major depressive disorder (MDD); details: cited from earlier work

COc1cc2c(cc1OC)C(=O)C(CC1CCN(Cc3ccccc3)CC1)C2 (stereo not drawn) [Donepezil]
acetylcholine levels in ventral hippocampus [1]: significantly increased

Cc1ccc(Sc2ccccc2N2CCNCC2)c(C)c1 [Vortioxetine, 1-[2-(2,4-dimethyl-phenylsulfanyl)-phenyl]-piperazine]
Vortioxetine in plasma ([2]; vortioxetine 10 mg/kg sc + donepezil 0.3 mg/kg ip): 317 ng/mL
Vortioxetine in plasma ([2]; vortioxetine 10 mg/kg sc + donepezil 1 mg/kg ip): 317 ng/mL
acetylcholine levels in hippocampus ([3]; vortioxetine 10 mg/kg sc): significant increase
reversal of scopolamine-induced memory impairment (recognition index, RI) ([4]; scopolamine 0.5 mg/kg + vortioxetine 5 mg/kg ip 20 minutes prior to familiarization trial): neither vortioxetine at 5 mg/kg nor donepezil at 0.5 mg/kg is able to reverse this impairment
half-life in humans [5]: approximately 57 hours
occupancy at serotonin transporter (serotonin transporter [6]): almost full occupancy
occupancy at 5-HT3-receptor (5-HT3-receptor): almost full occupancy
occupancy at 5-HT1B-receptor (5-HT1B-receptor): almost full occupancy
serotonin transporter occupancy (serotonin transporter [7]; 5 mg/day): 51%
serotonin transporter occupancy (serotonin transporter [7]; 10 mg/day): 63%
serotonin transporter occupancy (serotonin transporter [7]; 20 mg/day): 90%
prevention of relapse [8]: effective in preventing relapse
changes in clinical laboratory results, vital signs, weight, or ECG parameters ([9]; human, in vivo): no clinically relevant changes
treatment of depressive and anxious symptoms versus placebo ([9]; patients with MDD, six weeks): separates significantly from placebo

COc1ccc2c3c1O[C@H]1C[C@@H](O)C=C[C@@]31CCN(C)C2 [galantamine, (4aS,6R,8aS)-4a,5,9,10,11,12-hexahydro-3-methoxy-11-methyl-6H-benzofuro[3a,3,2-ef][2]benzazepin-6-ol]
acetylcholine levels in hippocampus ([3]; galantamine 0.3 and 1.0 mg/kg sc and vehicle): dose dependent, significant increase

CCN(C)C(=O)Oc1cccc([C@H](C)N(C)C)c1 [rivastigmine, (S)—N-ethyl-N-methyl-3-[1-(dimethylamino)ethyl]-phenyl carbamate]
acetylcholine levels in hippocampus ([3]; rivastigmine 0.2 and 0.6 mg/kg sc and vehicle): dose-dependently and significantly increases

CN1[C@@H]2C[C@@H](OC(=O)[C@H](CO)c3ccccc3)C[C@H]1[C@@H]1O[C@@H]12 [scopolamine]
effect on short-term memory (recognition index, RI) ([4]; scopolamine 0.5 mg/kg ip 40 minutes prior to familiarization trial, versus saline, p<0.001): impairs short-term memory

— patent US9211288B2 (priority 2012, dated 2015)
